IC50 data for 24 molecules are collected here from patent publication US20260325533A1, “CDK INHIBITOR COMPOUNDS” (ALEKSIA THERAPEUTICS, INC., priority 2023, published 2026).

pIC50: −log10 of the molar value. Like-named read-outs stand apart in the source and are kept apart here. A value given as a limit tells only on which side of the number the result lay.

One test deals with CDK2/CCNE1 (Homo sapiens, UniProt P24941). The test can be described thus: CDK2 homogeneous time-resolved fluorescence (HTRF) kinase assay. It counts as biochemical. Conditions: CDK2/CCNE. On the procedure:
(§1) A CDK homogeneous time-resolved fluorescence (HTRF) assay was used to assess the potency of the compounds described herein.
(§2) To an untreated 384-well microtiter plate (ProxiPlate) was added 100 nL 100×test compound in DMSO and 5 μL 2×CDK enzyme in assay buffer (50 mM HEPES, 1 mM EGTA, 10 mM MgCl2, 0.01% Tween 20, 2 mM DTT). The plate was centrifuged at 800 RPM for 1 min then incubated for 20 min at 23 °C. 2.5 μL per well of 4×ATP and 2.5 μL 4×ULight™-eIF4E-binding protein 1 (Thr37/46) Peptide substrate were added to all wells. After addition, the plates were centrifuged at 800 RPM for 1 min. The plates were incubated at 23 °C for 60 min. 5 μL per well 4×EDTA solution were added to each well to stop the reaction. 5 μL 4×LANCE Ultra Europium-anti-phospho-eIF4E-binding protein 1 (Thr37/46) antibody were added to each well and the plate was centrifuged for 1 min at 800 RPM. The plate was incubated for 60 min at 23 °C. Fluorescence was read at 340 nm excitation and 665 nm emission on an En Vision 2105 fluorescence reader. The final concentrations of reagents in the activity assay were 3 nM CDK2/CCNE1, 1 mM ATP, 50 nM ULight™-eIF4E-binding protein 1 (Thr37/46) Peptide substrate, 1% DMSO, 10 mM EDTA, and 2 nM LANCE Ultra Europium-anti-phospho-eIF4E-binding protein 1 (Thr37/46).
(§3) Dose-response titrations were conducted by using an 11-point, half-logarithmic serial dilution scheme typically starting at 10 μM. Signals were reported as fluorescence units at 665 nm or the ratio of fluorescence units at 665 nm/fluorescence units at 615 nm. Signals are referred to below as “Lance signals”.
(§4) Using this assay, the IC50 values of example compounds were determined. Table 3 illustrates the IC50 for various Example compounds of Formula IA. Table 4 illustrates the IC50 for various other Example compounds of Formula I. ND=not determined.
In general terms: TR-FRET usually uses a lanthanide donor and a delayed reading to cut background.

A further test has as its target CDK1/CCNB1 (Homo sapiens, UniProt P06493). The test can be described thus: CDK1 homogeneous time-resolved fluorescence (HTRF) kinase assay. To be noted: CDK1/CCNB. The format is biochemical. On the procedure:
as §1
as §2, with “were 0.5” for “were 3”, “nM CDK1/CCNB1,” for “nM CDK2/CCNE1,”
as §3, §4

The mark [1] stands for this setting: >250 nM marked x, read-out: CDK2/CCNE IC50 >250 nM.
Setting [2] is: >250 nM marked x, read-out: CDK1/CCNB IC50 >250 nM.
Setting [3] is: 25-250 nM marked x, read-out: CDK2/CCNE IC50 25-250 nM.
Setting [4] is: <25 nM, read-out: CDK2/CCNE IC50 <25 nM.

Chain of CDK1/CCNB1 (P06493 whole entry): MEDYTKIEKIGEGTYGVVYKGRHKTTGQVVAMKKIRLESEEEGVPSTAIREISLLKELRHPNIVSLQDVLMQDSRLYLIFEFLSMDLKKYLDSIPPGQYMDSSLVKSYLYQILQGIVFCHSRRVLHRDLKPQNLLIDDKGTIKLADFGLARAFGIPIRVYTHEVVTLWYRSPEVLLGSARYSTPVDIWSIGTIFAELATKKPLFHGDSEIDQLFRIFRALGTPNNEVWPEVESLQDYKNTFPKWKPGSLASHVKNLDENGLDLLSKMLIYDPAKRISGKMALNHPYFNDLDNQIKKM
Chain of CDK1/CCNB1 (P14635 whole entry partner): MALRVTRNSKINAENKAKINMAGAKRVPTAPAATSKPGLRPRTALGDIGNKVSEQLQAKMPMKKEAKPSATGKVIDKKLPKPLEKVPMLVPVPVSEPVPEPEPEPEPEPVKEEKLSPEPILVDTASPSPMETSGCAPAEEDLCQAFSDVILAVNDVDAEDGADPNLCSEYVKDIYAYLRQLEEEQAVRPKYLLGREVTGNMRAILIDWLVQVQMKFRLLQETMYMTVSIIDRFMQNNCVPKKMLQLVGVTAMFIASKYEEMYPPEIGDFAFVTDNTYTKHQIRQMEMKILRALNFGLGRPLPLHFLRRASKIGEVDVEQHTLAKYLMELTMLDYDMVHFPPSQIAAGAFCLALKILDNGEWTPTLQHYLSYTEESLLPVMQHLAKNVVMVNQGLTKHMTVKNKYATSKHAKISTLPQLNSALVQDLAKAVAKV

As for `CS(=O)(=O)N1CCC(Nc2cc3c(N4CCS(=O)(=O)CC4)nccc3cn2)CC1` [Ex 59, 4-(7-((1-(methylsulfonyl)piperidin-4-yl)amino)-2,6-naphthyridin-1-yl)thiomorpholine 1,1-dioxide], the pIC50 on CDK2/CCNE1 (setting [1]) and on CDK1/CCNB1 (setting [2]) was less than 6.60 throughout.
In the case of `CS(=O)(=O)N1CCC(Nc2cc3c(N4CCN(CCO)CC4)nccc3cn2)CC1` [Ex 60, 2-(4-(7-((1-(methylsulfonyl)piperidin-4-yl)amino)-2,6-naphthyridin-1-yl)piperazin-1-yl)ethan-1-ol], the pIC50 is 6.60 to 7.60 at CDK2/CCNE1 (setting [3]) and less than 6.60 at CDK1/CCNB1 (setting [2]).
In the same order, the values of `CS(=O)(=O)N1CCC(Nc2cc3c(-c4ccc(C(F)(F)F)nc4)nccc3cn2)CC1` [Ex 62, N-(1-(methylsulfonyl)piperidin-4-yl)-5-(6-(trifluoromethyl)pyridin-3-yl)-2,6-naphthyridin-3-amine] are 6.60 to 7.60 and less than 6.60.
For the molecule `CS(=O)(=O)N1CCC(Nc2cc3c(-c4cnc(N)nc4)nccc3cn2)CC1` [Ex 66, 5-(2-aminopyrimidin-5-yl)-N-(1-(methylsulfonyl)piperidin-4-yl)-2,6-naphthyridin-3-amine], the pIC50 on CDK2/CCNE1 (setting [1]) and at CDK1/CCNB1 (setting [2]) was less than 6.60 each time.
For the molecule `CS(=O)(=O)N1CCC(Nc2cc3c(-c4cccnc4)nccc3cn2)CC1` [Ex 67, N-(1-(methylsulfonyl)piperidin-4-yl)-5-(pyridin-3-yl)-2,6-naphthyridin-3-amine], the pIC50 is 6.60 to 7.60 on CDK2/CCNE1 (setting [3]) and less than 6.60 on CDK1/CCNB1 (setting [2]).
As for `CS(=O)(=O)N1CCC(Nc2cc3c(/C(C#N)=C/O)nccc3cn2)CC1` [Ex 80, (Z)-3-hydroxy-2-(7-((1-(methylsulfonyl)piperidin-4-yl)amino)-2,6-naphthyridin-1-yl)acrylonitrile], the pIC50 at CDK2/CCNE1 (setting [3]) is 6.60 to 7.60; at CDK1/CCNB1 (setting [2]), less than 6.60.
In the case of `CS(=O)(=O)N1CCC(Nc2cc3c(-c4ccncc4)nccc3cn2)CC1` [Ex 83, N-(1-(methylsulfonyl)piperidin-4-yl)-5-(pyridin-4-yl)-2,6-naphthyridin-3-amine], the pIC50 on CDK2/CCNE1 (setting [3]) was 6.60 to 7.60; at CDK1/CCNB1 (setting [2]), less than 6.60.
Turning to `CS(=O)(=O)N1CCC(Nc2cc3c(-c4ccc(CN5CCOCC5)cc4)nccc3cn2)CC1` [Ex 84, N-(1-(methylsulfonyl)piperidin-4-yl)-5-(4-(morpholinomethyl)phenyl)-2,6-naphthyridin-3-amine], the figures for the pIC50 at CDK2/CCNE1 (setting [3]) and at CDK1/CCNB1 (setting [2]) were 6.60 to 7.60 and less than 6.60, respectively.
Regarding `COc1ncc(-c2nccc3cnc(NC4CCN(S(C)(=O)=O)CC4)cc23)cn1` [Ex 85, 5-(2-methoxypyrimidin-5-yl)-N-(1-(methylsulfonyl)piperidin-4-yl)-2,6-naphthyridin-3-amine], the pIC50 at CDK2/CCNE1 (setting [1]) and at CDK1/CCNB1 (setting [2]) was less than 6.60 throughout.
For the molecule `CS(=O)(=O)N1CCC(Nc2cc3c(-c4ccc(C(=O)O)cc4)nccc3cn2)CC1` [Ex 86, 4-(7-((1-(methylsulfonyl)piperidin-4-yl)amino)-2,6-naphthyridin-1-yl)benzoic acid], the pIC50 at CDK2/CCNE1 (setting [1]) and at CDK1/CCNB1 (setting [2]) was less than 6.60 in each case.
Turning to `CS(=O)(=O)N1CCC(Nc2cc3c(-c4cnc5[nH]ccc5c4)nccc3cn2)CC1` [Ex 88, N-(1-(methylsulfonyl)piperidin-4-yl)-5-(1H-pyrrolo[2,3-b]pyridin-5-yl)-2,6-naphthyridin-3-amine], the pIC50 on CDK2/CCNE1 (setting [3]) was 6.60 to 7.60; on CDK1/CCNB1 (setting [2]), less than 6.60.
Take `CS(=O)(=O)N1CCC(Nc2cc3c(C(=O)NC4CC4)nccc3cn2)CC1` [Ex 93, N-cyclopropyl-7-((1-(methylsulfonyl)piperidin-4-yl)amino)-2,6-naphthyridine-1-carboxamide]: the pIC50 on CDK2/CCNE1 (setting [1]) and on CDK1/CCNB1 (setting [2]) was less than 6.60 in each case.
As for `C=CS(=O)(=O)N1CCC(Nc2cc3c(N4CCC(O)CC4)nccc3cn2)CC1` [Ex 105, 1-(7-((1-(vinylsulfonyl)piperidin-4-yl)amino)-2,6-naphthyridin-1-yl)piperidin-4-ol], the pIC50 on CDK2/CCNE1 (setting [4]) is more than 7.60; at CDK1/CCNB1 (setting [2]), less than 6.60.
Turning to `C=CS(=O)(=O)N1CCC(Nc2cc3c(-c4cnn(C)c4)nccc3cn2)CC1` [Ex 108, 5-(1-methyl-1H-pyrazol-4-yl)-N-(1-(vinylsulfonyl)piperidin-4-yl)-2,6-naphthyridin-3-amine], the pIC50 on CDK2/CCNE1 (setting [3]) is 6.60 to 7.60; at CDK1/CCNB1 (setting [2]), less than 6.60.
Take `C=CS(=O)(=O)N1CCC(Nc2cc3c(-c4ccc(C#N)nc4)nccc3cn2)CC1` [Ex 109, 5-(7-((1-(vinylsulfonyl)piperidin-4-yl)amino)-2,6-naphthyridin-1-yl)picolinonitrile]: the pIC50 at CDK2/CCNE1 (setting [3]) is 6.60 to 7.60; at CDK1/CCNB1 (setting [2]), less than 6.60.
Turning to `N#CC1CCN(c2nccc3cnc(Nc4ccc(C(=O)ON5C(=O)CCC5=O)cc4)cc23)CC1` [Ex 110, 2,5-dioxopyrrolidin-1-yl 4-((5-(4-cyanopiperidin-1-yl)-2,6-naphthyridin-3-yl)amino)benzoate], the pIC50 at CDK2/CCNE1 (setting [4]) is more than 7.60; on CDK1/CCNB1 (<25 nM, read-out: CDK1/CCNB IC50 <25 nM) it was more than 7.60.
For the molecule `N#CC1CCN(c2nccc3cnc(Nc4cccc(C(=O)ON5C(=O)CCC5=O)c4)cc23)CC1` [Ex 111, 2,5-dioxopyrrolidin-1-yl 3-((5-(4-cyanopiperidin-1-yl)-2,6-naphthyridin-3-yl)amino)benzoate], the pIC50 is 6.60 to 7.60 on CDK2/CCNE1 (setting [3]) and less than 6.60 on CDK1/CCNB1 (setting [2]).
Take `CS(=O)(=O)N1CCC(Nc2cc3c(N4CCCCC4)nc(C(F)F)cc3cn2)CC1` [Ex 118, 7-(difluoromethyl)-N-(1-(methylsulfonyl)piperidin-4-yl)-5-(piperidin-1-yl)-2,6-naphthyridin-3-amine]: the results for the pIC50 at CDK2/CCNE1 (setting [3]) and at CDK1/CCNB1 (setting [2]) were 6.60 to 7.60 and less than 6.60, respectively.
Turning to `CS(=O)(=O)N1CCC(Nc2cc3c(N4CCCCC4)nc(CCl)cc3cn2)CC1` [Ex 119, 7-(chloromethyl)-N-(1-(methylsulfonyl)piperidin-4-yl)-5-(piperidin-1-yl)-2,6-naphthyridin-3-amine], the pIC50 on CDK2/CCNE1 (setting [1]) and on CDK1/CCNB1 (setting [2]) was less than 6.60 each time.
Consider `Cn1cc(-c2nccc3cnc(Nc4ccc(S(C)(=O)=O)cc4)cc23)nn1` [Ex 125, 5-(1-methyl-1H-1,2,3-triazol-4-yl)-N-(4-(methylsulfonyl)phenyl)-2,6-naphthyridin-3-amine], for which the values for the pIC50 on CDK2/CCNE1 (setting [3]) and on CDK1/CCNB1 (setting [2]) were 6.60 to 7.60 and less than 6.60, respectively.
In the same order, the values of `CS(=O)(=O)c1ccc(Nc2cc3c(-c4ccc5[nH]cnc5c4)nccc3cn2)cc1` [Ex 126, 5-(1H-benzo[d]imidazol-5-yl)-N-(4-(methylsulfonyl)phenyl)-2,6-naphthyridin-3-amine] are 6.60 to 7.60 and less than 6.60.
Turning to `N#CC1CCN(c2nccc3cnc(Nc4ccc(C=O)cc4)cc23)CC1` [Ex 128, 1-(7-((4-formylphenyl)amino)-2,6-naphthyridin-1-yl)piperidine-4-carbonitrile], the pIC50 is 6.60 to 7.60 at CDK2/CCNE1 (setting [3]) and less than 6.60 on CDK1/CCNB1 (setting [2]).
For `N#CC1CCN(c2nccc3cnc(Nc4ccc(CO)cc4)cc23)CC1` [Ex 132, 1-(7-((4-(hydroxymethyl)phenyl)amino)-2,6-naphthyridin-1-yl)piperidine-4-carbonitrile], the pIC50 is 6.60 to 7.60 at CDK2/CCNE1 (setting [3]) and less than 6.60 on CDK1/CCNB1 (setting [2]).
In the same order, the values of `N#CC1CCN(c2nccc3cnc(Nc4ccc(CCO)cc4)cc23)CC1` [Ex 133, 1-(7-((4-(2-hydroxyethyl)phenyl)amino)-2,6-naphthyridin-1-yl)piperidine-4-carbonitrile] are 6.60 to 7.60 and less than 6.60.
